# Columns and labels:
# pigweed = experiment: Test A pre-/postemergence herbicide test; format: in vivo, Amaranthus retroflexus
# Outline: (§1)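 Seeds sown in loam soil/sand blend received a preemergence directed soil spray of test chemical in non-phytotoxic solvent with surfactant; postemergence plants (2–10 cm, one- to two-leaf stage) were sprayed with the same formulation. After about 10 days in greenhouse, injury was rated visually versus untreated controls, 0 (no effect) to 100 (complete control).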
# ducksalad = experiment: Test B flooded paddy test; format: in vivo, Heteranthera limosa; conditions: 500 g ai/ha, Flood; scale of 0 to 100 where 0 is no effect and 100 is complete control
# Outline: (§2)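 Treatment was made at the 2-leaf stage by dosing the standing floodwater, kept 3 cm above soil level for the whole test. Greenhouse exposure lasted 13 to 15 days. Response is a visual percent rating relative to controls, where a dash indicates no test result.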
# barnyardgrass [1] = experiment: Test A pre-/postemergence herbicide test; format: in vivo, Echinochloa crus-galli
# Outline: as §1
# ryegrass, Italian = experiment: Test A pre-/postemergence herbicide test; format: in vivo, Lolium multiflorum
# Outline: as §1
# kochia = experiment: Test A pre-/postemergence herbicide test; format: in vivo, Kochia scoparia
# Outline: as §1
# corn = experiment: Test A pre-/postemergence herbicide test; format: in vivo, Zea mays; conditions: Postemergence
# Outline: as §1
# ragweed = experiment: Test A pre-/postemergence herbicide test; format: in vivo, Ambrosia elatior
# Outline: as §1
# galium = experiment: Test A postemergence herbicide test; format: in vivo, Galium aparine
# Outline: (§3)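 Young potted plants in a loam–sand mix, one- to two-leaf stage and 2–10 cm tall, receive the test chemical postemergence and stay in a greenhouse for approximately 10 days. Injury is then judged by eye against untreated plants, scored 0 (none) to 100 (complete control).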
# blackgrass = experiment: Test A postemergence herbicide test; format: in vivo, Alopecurus myosuroides
# Outline: as §3
# rice = experiment: Test B flooded paddy test; format: in vivo, Oryza sativa; conditions: 500 g ai/ha, Flood; scale of 0 to 100 where 0 is no effect and 100 is complete control
# Outline: as §2
# sedge, umbrella = experiment: Test B flooded paddy test; format: in vivo, Cyperus difformis; conditions: 500 g ai/ha, Flood; scale of 0 to 100 where 0 is no effect and 100 is complete control
# Outline: as §2
# giant foxtail = experiment: Test A pre-/postemergence herbicide test; format: in vivo, Setaria faberii
# Outline: as §1
# barnyardgrass [2] = experiment: Test B flooded paddy test; format: in vivo, Echinochloa crus-galli; conditions: 500 g ai/ha, Flood; scale of 0 to 100 where 0 is no effect and 100 is complete control
# Outline: as §2
# wheat = experiment: Test A pre-/postemergence herbicide test; format: in vivo, Triticum aestivum; conditions: Postemergence
# Outline: as §1
# [3] = Postemergence, 125 g ai/ha, visual rating on 0 to 100 scale (0 no effect, 100 complete control), approx. 10 days
# [4] = Postemergence, 500 g ai/ha, 0 to 100 scale (0 no effect, 100 complete control)
# [5] = Preemergence, 125 g ai/ha, 0 to 100 scale where 0 is no effect and 100 is complete control
# [6] = Preemergence, 500 g ai/ha, visual rating on 0 to 100 scale (0 no effect, 100 complete control)
# [7] = 125 g ai/ha, visual rating on 0 to 100 scale (0 no effect, 100 complete control), approx. 10 days
# [8] = 500 g ai/ha, 0 to 100 scale (0 no effect, 100 complete control)
# [9] = 125 g ai/ha, visual rating, 0 to 100 scale, 0 no effect, 100 complete control, approximately 10 days, preemergence
# [10] = Postemergence, 125 g ai/ha, 0 to 100 scale, 0 is no effect, 100 is complete control
# [11] = preemergence, 500 g ai/ha, 0 to 100 scale, 0 is no effect and 100 is complete control
# [12] = 125 g ai/ha, 0 to 100 scale, 0 is no effect, 100 is complete control
smiles,measurement,setting,value
O=C1NCC(c2cccc(Oc3ccccc3)c2)C1C(=O)Nc1cccc(F)c1F (stereo not drawn) [Compound 332],"Plant response rating, Pigweed",pigweed; [3],0
same,"Plant response rating, Pigweed",pigweed; [4],0
same,"Plant response rating, Pigweed",pigweed; [5],0
same,Pigweed plant response rating,pigweed; [6],0
same,"Plant response rating, Ducksalad",ducksalad,75
same,"Plant response rating, Barnyardgrass",barnyardgrass [1]; [3],40
same,"Plant response rating, Barnyardgrass",barnyardgrass [1]; [4],50
same,"Plant response rating, Barnyardgrass",barnyardgrass [1]; [5],70
same,Barnyardgrass plant response rating,barnyardgrass [1]; [6],80
same,"Plant response rating, Ryegrass, Italian","ryegrass, Italian; [3]",0
same,"Plant response rating, Ryegrass, Italian","ryegrass, Italian; [4]",20
same,"Plant response rating, Ryegrass, Italian","ryegrass, Italian; [5]",0
same,"Ryegrass, Italian plant response rating","ryegrass, Italian; [6]",0
same,"Plant response rating, Kochia",kochia; [3],0
same,"Plant response rating, Kochia",kochia; [4],20
same,"Plant response rating, Kochia",kochia; [5],0
same,Kochia plant response rating,kochia; [6],0
same,"Plant response rating, Corn",corn; [7],0
same,"Plant response rating, Corn",corn; [8],0
same,"Plant response rating, Ragweed",ragweed; [3],0
same,"Plant response rating, Ragweed",ragweed; [4],0
same,"Plant response rating, Ragweed",ragweed; [5],0
same,Ragweed plant response rating,ragweed; [6],0
same,"Plant response rating, Galium",galium; [7],0
same,"Plant response rating, Galium",galium; [8],20
same,"Plant response rating, Blackgrass",blackgrass; [7],0
same,"Plant response rating, Blackgrass",blackgrass; [8],0
same,"Plant response rating, Rice",rice,0
same,"Plant response rating, Sedge, Umbrella","sedge, umbrella",0
same,"Plant response rating, Foxtail, Giant",giant foxtail; [3],30
same,"Plant response rating, Foxtail, Giant",giant foxtail; [4],80
same,"Plant response rating, Foxtail, Giant",giant foxtail; [5],80
same,"Foxtail, Giant plant response rating",giant foxtail; [6],90
same,"Plant response rating, Barnyardgrass",barnyardgrass [2],40
same,"Plant response rating, Wheat",wheat; [7],0
same,"Plant response rating, Wheat",wheat; [8],20
O=C1NCC(c2cccc(C3CC3)c2)C1C(=O)Nc1ccc(F)c(F)c1F (racemic) [Compound 168],"Plant response rating, Pigweed",pigweed; [9],40
same,"Plant response rating, Pigweed",pigweed; [10],0
same,"Pigweed plant response rating (0 to 100 scale, 0 is no effect, 100 is complete control)","pigweed; Postemergence, 500 g ai/ha",40
same,"Plant response rating, Pigweed",pigweed; [11],50
same,"Plant response rating, Ducksalad",ducksalad,100
same,"Plant response rating, Barnyardgrass",barnyardgrass [1]; [9],90
same,"Plant response rating, Barnyardgrass",barnyardgrass [1]; [10],90
same,"Barnyardgrass plant response rating (0 to 100 scale, 0 is no effect, 100 is complete control)","barnyardgrass [1]; Postemergence, 500 g ai/ha",90
same,"Plant response rating, Barnyardgrass","barnyardgrass [1]; preemergence, 500 g ai/ha, 0 to 100 scale (0 no effect, 100 complete control)",90
same,"Plant response rating, Ryegrass, Italian","ryegrass, Italian; [9]",0
same,"Plant response rating, Ryegrass, Italian","ryegrass, Italian; [10]",20
same,"Ryegrass, Italian plant response rating (0 to 100 scale, 0 is no effect, 100 is complete control)","ryegrass, Italian; Postemergence, 500 g ai/ha",50
same,"Plant response rating, Ryegrass, Italian","ryegrass, Italian; [11]",40
same,"Plant response rating, Kochia",kochia; [9],40
same,"Plant response rating, Kochia",kochia; [10],40
same,"Kochia plant response rating (0 to 100 scale, 0 is no effect, 100 is complete control)","kochia; Postemergence, 500 g ai/ha",60
same,"Plant response rating, Kochia",kochia; [11],60
same,"Plant response rating, Corn",corn; [12],30
same,"Corn plant response rating (0 to 100 scale, 0 is no effect, 100 is complete control)",corn; 500 g ai/ha,70
same,"Plant response rating, Ragweed",ragweed; [9],0
same,"Plant response rating, Ragweed",ragweed; [10],0
same,"Ragweed plant response rating (0 to 100 scale, 0 is no effect, 100 is complete control)","ragweed; Postemergence, 500 g ai/ha",20
same,"Plant response rating, Ragweed",ragweed; [11],50
same,"Plant response rating, Galium",galium; [12],60
same,"Galium plant response rating (0 to 100 scale, 0 is no effect, 100 is complete control)",galium; 500 g ai/ha,70
same,"Plant response rating, Blackgrass",blackgrass; [12],40
same,"Blackgrass plant response rating (0 to 100 scale, 0 is no effect, 100 is complete control)",blackgrass; 500 g ai/ha,60
same,"Plant response rating, Rice",rice,0
same,"Plant response rating, Sedge, Umbrella","sedge, umbrella",0
same,"Plant response rating, Foxtail, Giant",giant foxtail; [9],90
same,"Plant response rating, Foxtail, Giant",giant foxtail; [10],90
same,"Foxtail, Giant plant response rating (0 to 100 scale, 0 is no effect, 100 is complete control)","giant foxtail; Postemergence, 500 g ai/ha",90
same,"Plant response rating, Foxtail, Giant","giant foxtail; preemergence, 500 g ai/ha, 0 to 100 scale",90
same,"Plant response rating, Barnyardgrass",barnyardgrass [2],65
same,"Plant response rating, Wheat",wheat; [12],0
same,"Wheat plant response rating (0 to 100 scale, 0 is no effect, 100 is complete control)",wheat; 500 g ai/ha,40

# Reference: patent publication US10294202B2, “Pyrrolidinones as herbicides” (FMC Corporation, priority 2013, dated 2019)
